Columns and labels:
[1] = tested on: German cockroaches (Blattella germanica); assay: German cockroach Petri dish filter paper bioassay (repellency and toxicity); assay type: in vivo
Method: To test the efficacy of nootkatone against cockroaches, German cockroaches (Blattella germanica) were collected at Baton Rouge, La., the same day as the bioassay was begun.
For the bioassay, Petri dishes (10 cm diameter×1 cm) were used. The Petri dishes were prepared by lining one half of the top and one half of the bottom with a half circle of filter paper (125 mm), and lining the other half with a second half circle of filter paper. For the treated Petri dishes, 50 mg nootkatone and 300 mg REPEL® were dissolved in 2.0 ml ethanol. To each Petri dish was added either ethanol only, 30 mg Deet, 1 mg nootkatone, or 10 mg nootkatone. Ten replicate Petri dishes were used for each of the treatments. The ethanol solution was added to the filter paper on the top and bottom and dried for 10 min. One cockroach was added to each Petri dish. The length of the cockroaches varied from 1 to 1.5 cm. The dishes were then observed at 15 min, 30 min, 1 hr, 2 hr, 3 hr, 4 hr, 5 hr, 24 hr, 48 hr, and 120 hr.

[2] = tested on: Imported red fire ants, Solenopsis invicta; assay: Fire ant three-chambered container bioassay with treated sand (repellency and mortality); assay type: in vivo; conditions: for Percent ants in the sand area after 15 min / Number of ants (% ± SE) in the sand area after 15 min (test after 40 days): mean ± SE; for Living ants found in the sand area over seven days: FIG. 1; for Living ants found in the sand area over 7 days: FIG. 3
From the text: Nootkatone was purchased from a commercial source (Lancaster Synthesis Inc. Windham, N.H.). The source of the vetiver oil was The Good Scents Company (Oak Creek, Wis.). Three-chambered clear plastic containers (17×8×4 cm; Pioneer Packaging Co., North Dixon, Ky.) were used to test the effect of nootkatone and vetiver oil on the fire ants. Each rectangular container (17×8×4 cm) was divided into three equal compartments with two inner walls. A small hole (0.5 cm diameter) was melted at the bottom of each of the inner walls to permit fire ant access to all chambers. The top inner sides of the containers were coated with FLUON® (Northern Products, Inc., Woonsocket, R.I.) to prevent ants from escaping. Into the far left chamber, designated the “nest area,” was placed a 55 mm #2 Whatman filter paper circle (Whatman International, Maidstone, England) moistened with 0.5 ml ddH2O to serve as a substrate. For a food source, a second 55 mm #2 Whatman filter paper circle was moistened with 0.5 ml 10% sucrose solution and placed in the far right chamber (“feeding area”). In the middle chamber, 30 g of #4 fine blasting sand (Easy Crete, Inc., Greenwell Springs, La.) moistened with 3 ml ddH2O was added. The sand had previously been treated by mixing with ethanol only (the controls) or with ethanol and solutions of nootkatone or vetiver oil to obtain final concentrations of 10 μg/g sand and 100 μg/g sand. The treated sand was allowed to air-dry for 2 hr in a ventilated hood before placing into the container.
Imported red fire ants, Solenopsis invicta, were collected the day before beginning the experiment from two Louisiana colonies (Colony A and Colony B) whose nests were 50 m apart. For each container, 30 workers were placed in the nest area in a small Petri dish (3.5 cm diameter) with the lid closed initially. The total number of containers was 30; 15 for each colony. For each colony, three replicates were established for each of the following treatments: a control; 10 μg/g nootkatone ([…]), 100 μg/g nootkatone (“Noot-100”), 10 μg/g vetiver oil (“Vet-10”), […].
After the ants were acclimated, the lid on the Petri dish was removed. Ant behavior was observed during the first 15 min for the following: time for the first ant to cross into the middle chamber; time for the first ant to cross into the feeding area; and number of ants in the middle chamber after 5, 10, and 15 min. The plastic containers were kept closed with lids in a thermostatic chamber at 27° C. for one week. Each day at the same time, the numbers of live and dead ants in each chamber were noted.
To test for effectiveness of nootkatone and vetiver oil after the passage of time, the above experiment was repeated 40 days later with sand that had been treated at the same time as the above experiment. For 40 days, the sand had been maintained in separate chambers with non-hermetic lids in a dark room at room temperature. For this second experiment, fire ants were freshly collected from two different Louisiana colonies.
The number of ants, expressed as a percent of the total number in the container, found in the treated area after the first 15 minutes was compared using a two-way ANOVA followed by Newman-Keuls post-hoc test, considering the factors “colony” (A, B) and “treatment” (Control, Noot-100, Noot-10, Vet-100, Vet-10). Data for both the number of live and dead ants (expressed as percent of the total) during the seven days of the experiment were analyzed with 2-way ANOVA for repeated measures followed by Newman-Keuls post-hoc tests, considering the variables “colony” and “treatment” and the variable “day” as the repeated factor. All data were analyzed using Statistica 5.5 (1999 edition, Statsoft Inc., Tulsa, Okla.).

SMILES: C=C(C)C1CCC2=CC(=O)CC(C)C2(C)C1 (centres unmarked) [nootkatone, 4,4a,5,6,7,8-hexahydro-6-isopropenyl-4,4a-dimethyl-2(3H)-naphthalone]
- Repellent activity against the cockroaches ([1]; 1 mg per dish): weak repellent
- Percent Repellency ([1]; 1 mg per dish, 30 min): 70%
- Percent Repellency ([1]; 1 mg per dish, 1 hr): 60%
- Percent Repellency ([1]; 1 mg per dish, 2 hr): 50%
- Percent Repellency ([1]; 1 mg per dish, 3 hr): 78%
- Percent Repellency ([1]; 1 mg per dish, 4 hr): 78%
- Percent Repellency ([1]; 1 mg per dish, 5 hr): 78%
- Percent Repellency ([1]; 1 mg per dish, 24 hr): 56%
- Percent Repellency ([1]; 1 mg per dish, 48 hr): 78%
- Percent Repellency ([1]; 1 mg per dish, 120 hr): 100%
- Percent Repellency ([1]; 10 mg per dish, 30 min): 90%
- Percent Repellency ([1]; 10 mg per dish, 1 hr): 100%
- Percent Repellency ([1]; 10 mg per dish, 2 hr): 100%
- Percent Repellency ([1]; 10 mg per dish, 3 hr): 100%
- Percent Repellency ([1]; 10 mg per dish, 4 hr): 100%
- Percent Repellency ([1]; 10 mg per dish, 5 hr): 100%
- Percent Repellency ([1]; 10 mg per dish, 24 hr): 100%
- Percent Repellency ([1]; 10 mg per dish, 48 hr): 100%
- Percent Repellency ([1]; 10 mg per dish, 120 hr): 100%
- Number of cockroach deaths compared with the control ([1]; any of the treatments (30 mg Deet; 1 mg or 10 mg nootkatone), up to 120 hr): not significantly different from the control
- Percent ants in the sand area after 15 min ([2]; 10 μg/g sand, sand treated 2 hr prior): 23.89 ± 3.35 b %
- Number of ants (% ± SE) in the sand area after 15 min (test after 40 days) ([2]; 10 μg/g sand, sand treated 40 days prior): 26.11 ± 3.07 b %
- Percent ants in the sand area after 15 min ([2]; 100 μg/g sand, sand treated 2 hr prior): 13.33 ± 2.42 b %
- Number of ants (% ± SE) in the sand area after 15 min (test after 40 days) ([2]; 100 μg/g sand, sand treated 40 days prior): 13.89 ± 1.99 b %
- Living ants found in the sand area over seven days ([2]; highest concentration (100 μg/g), sand treated 2 hr prior): Almost no ants
- Cumulative mortality over 7 days ([2]; highest concentration (100 μg/g), sand treated 2 hr prior, FIG. 2): highest
- Living ants found in the sand area over 7 days ([2]; highest concentration (100 μg/g), sand treated 40 days prior): Almost no ants
- Cumulative mortality over 7 days ([2]; highest concentration (100 μg/g), sand treated 40 days prior, FIG. 4): always greatest
- Cumulative mortality over 7 days ([2]; lower concentration (10 μg/g), sand treated 40 days prior, compared with highest concentration, FIG. 4): significantly lower
- Living ants found in the sand area over seven days ([2]; lowest concentration (10 μg/g), sand treated 2 hr prior, vs controls): substantially lower numbers of ants
- Living ants found in the sand area over 7 days ([2]; lowest concentration (10 μg/g), sand treated 40 days prior, vs controls): significantly lower numbers of ants
- Effectiveness forty days after the initial application ([2]; sand treated 40 days prior): still effective

Source: patent US6906108B2, “Extracts of vetiver oil as repellent and toxicant to ants, ticks, and cockroaches” (Board of Supervisors of Louisiana State University and …, priority 2001, dated 2005)
